{
  "source": "patent US5891892A",
  "about": "“Small molecule biaryl compounds as inhibitors of endothelin converting enzyme” (Warner-Lambert Company, priority 1997, dated 1999)",
  "key": {"isolated rat hearts": {"system": "isolated rat hearts", "details": "cited from earlier work; for preischemic increase in coronary perfusion pressure induced by big ET-1 and its preischemic effect: phosphoramidon (IC50 =100 μM), BQ-123 0.3 μM; for time to contracture in globally ischemic rat hearts: 30 pMol ET-1 or 10 nMol big ET-1 pretreatment; for IC50: isolated rat hearts, read-out: IC50, reduction of coronary flow"}, "ET receptor": {"system": "ET receptor", "details": "allergic sheep; cited from earlier work"}, "ETA": {"system": "ETA", "details": "endotoxic shock, mouse; cited from earlier work"}, "SHR": {"system": "SHR", "details": "IV infusion; cited from earlier work"}, "human ECE-1": {"molecular_target": "T1, human ECE-1 (Homo sapiens, UniProt P42892)", "T1 construct": "expressed in transfected cells", "T1 sequence (P42892 1-770)": "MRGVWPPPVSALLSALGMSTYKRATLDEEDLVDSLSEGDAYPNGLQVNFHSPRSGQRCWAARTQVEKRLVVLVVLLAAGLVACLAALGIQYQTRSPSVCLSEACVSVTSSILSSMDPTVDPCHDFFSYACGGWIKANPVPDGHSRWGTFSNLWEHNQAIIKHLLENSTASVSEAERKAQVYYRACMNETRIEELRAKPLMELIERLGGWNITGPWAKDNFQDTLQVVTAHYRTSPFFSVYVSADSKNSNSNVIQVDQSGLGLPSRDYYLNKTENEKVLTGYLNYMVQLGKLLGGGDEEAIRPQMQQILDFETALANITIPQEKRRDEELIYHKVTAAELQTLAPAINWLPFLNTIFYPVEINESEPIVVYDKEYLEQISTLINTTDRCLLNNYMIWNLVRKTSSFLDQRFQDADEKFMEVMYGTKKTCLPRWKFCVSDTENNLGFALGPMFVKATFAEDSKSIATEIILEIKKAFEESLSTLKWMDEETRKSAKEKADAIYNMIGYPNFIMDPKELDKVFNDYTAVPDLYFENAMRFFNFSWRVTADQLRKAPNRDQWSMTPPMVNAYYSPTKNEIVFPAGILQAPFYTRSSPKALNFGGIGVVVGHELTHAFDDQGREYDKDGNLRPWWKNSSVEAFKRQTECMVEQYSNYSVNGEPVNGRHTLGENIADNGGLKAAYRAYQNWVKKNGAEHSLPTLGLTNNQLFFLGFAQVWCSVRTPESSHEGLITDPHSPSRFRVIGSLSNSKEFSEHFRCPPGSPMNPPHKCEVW", "assay": "ECE-1 Assay (ET-1 formed from big ET-1, by Elisa)", "assay_type": "biochemical", "details": "solubilized membrane fraction of CHO/human ECE-1 cells, 0.1 μM big ET-1, pH 7.0, 1 hour at 37° C.", "description": "All cells were grown in a humidified incubator at 37° C. in an atmosphere of 5% CO2/95% air. The membrane fractions from CHO cells were prepared as described in (Cell 1994; (78):473-485). ECE-1 Assay […] The final concentration of DMSO was 1.5%. […] This final mixture was then directly analyzed for the amount of ET-1 by enzyme-linked immunosorbant assay (Elisa)."}, "endothelin": {"system": "endothelin", "details": "rats; cited from earlier work"}, "[1]": {"system": "pressor response of big ET", "details": "cited from earlier work"}, "[2]": {"system": "effects of big ET-1 in the microvasculature", "details": "anesthetized hamsters; cited from earlier work"}, "[3]": {"system": "vasoconstrictor effects evoked by big ET-1", "details": "anaesthetized pigs; cited from earlier work"}, "[4]": {"system": "pulmonary vascular resistance", "details": "young piglets; cited from earlier work"}, "[5]": {"system": "hemodynamic actions of big ET-1", "details": "rat brain; cited from earlier work"}, "ECE": {"system": "ECE", "details": "ECE in vitro, cited from earlier work"}, "[6]": {"system": "lethality induced by big ET-1", "details": "in vivo; cited from earlier work"}, "[7]": {"system": "effects of intracisternal big ET-1", "details": "anesthetized dogs; cited from earlier work"}, "infarct size": {"system": "infarct size", "details": "IV, 24 hour postischemia; cited from earlier work"}, "[8]": {"system": "pressor response of big ET-1", "details": "ganglion-blocked anesthetized rats; cited from earlier work"}, "vascular strips": {"system": "vascular strips", "details": "cited from earlier work"}, "[9]": {"details": "in vivo; cited from earlier work"}, "gastric mucosa": {"system": "gastric mucosa", "details": "50 to 500 pmol/kg into the left gastric artery; cited from earlier work"}},
  "note": "Where two headings read alike, the source gives them in different places. Non-standard residues stand in square brackets, D forms with d. Residues, ends and D or L forms follow the SMILES beside them. No end group written: not given here.",
  "data": [
    {"compound": "CC(C)C[C@@H]1NC(=O)[C@@H](C(C)C)NC(=O)[C@@H]2CCCN2C(=O)[C@@H](CC(=O)O)NC(=O)[C@@H](Cc2c[nH]c3ccccc23)NC1=O", "note": "[BQ-123] (cyclo(L[dW][dD]P[dV]))", "values": [
      {"measurement": "preischemic increase in coronary perfusion pressure induced by big ET-1 and its preischemic effect", "setting": "isolated rat hearts", "value": "abolished the preischemic increase in coronary perfusion pressure induced by big ET-1 as well as its preischemic effect"},
      {"measurement": "ET-1-induced bronchoconstriction and tracheal smooth muscle contraction", "setting": "ET receptor", "value": "block ET-1-induced bronchoconstriction and tracheal smooth muscle contraction in allergic sheep"},
      {"measurement": "survival rate", "setting": "ETA", "value": "significantly increased the survival rate in this model"}
    ]},
    {"compound": "O=P(O)(O)CNC(Cc1ccc(-c2ccccc2)cc1)c1nn[nH]n1", "note": "(stereo not drawn) [CGS 26303]", "values": [
      {"measurement": "antihypertensive responses in the SHR", "setting": "SHR", "value": "effective at lowering the antihypertensive responses in the SHR"}
    ]},
    {"compound": "COc1cc(C(=O)O)nc(-c2csc(CCCCCC(C)O)n2)c1OC", "note": "(stereo not drawn) [Example 1, 6-[2-(6-Hydroxy-heptyl)-thiazol-4-yl]-4,5-dimethoxy-pyridine-2-carboxylic acid]", "values": [
      {"measurement": "IC50", "setting": "human ECE-1", "value": 1300, "unit": "nM"}
    ]},
    {"compound": "COc1cc(C(=O)O)nc(-c2csc(C)n2)c1OC", "note": "[Example 2, 6-(2-Methyl-thiazol-4-yl)-4,5-dimethoxy-pyridine-2-carboxylic acid]", "values": [
      {"measurement": "IC50", "setting": "human ECE-1", "value": 1900, "unit": "nM"}
    ]},
    {"compound": "CCCCCCCc1nc(-c2nc(C(=O)O)cc(OC)c2OC)cs1", "note": "[Example 3, 6-(2-Heptyl-thiazol-4-yl)-4,5-dimethoxy-pyridine-2-carboxylic acid]", "values": [
      {"measurement": "IC50", "setting": "human ECE-1", "value": 1300, "unit": "nM"}
    ]},
    {"compound": "COc1cc(C(=O)O)nc(-c2csc(N)n2)c1OC", "note": "[Example 4, 6-(2-Amino-thiazol-4-yl)-4,5-dimethoxy-pyridine-2-carboxylic acid]", "values": [
      {"measurement": "IC50", "setting": "human ECE-1", "value": "1000 to 5000", "unit": "nM"}
    ]},
    {"compound": "CNc1nc(-c2nc(C(=O)O)cc(OC)c2OC)cs1", "note": "[Example 5, 6-(2-N-Methylamino-thiazol-4-yl)-4,5-dimethoxy-pyridine-2-carboxylic acid]", "values": [
      {"measurement": "IC50", "setting": "human ECE-1", "value": "1000 to 5000", "unit": "nM"}
    ]},
    {"compound": "COc1cc(C(=O)O)nc(-c2cscn2)c1OC", "note": "[Example 6, 6-(Thiazol-4-yl)-4,5-dimethoxy-pyridine-2-carboxylic acid]", "values": [
      {"measurement": "IC50", "setting": "human ECE-1", "value": "5000 to 10000", "unit": "nM"}
    ]},
    {"compound": "COc1cccc(Oc2c(NS(=O)(=O)c3ccc(C(C)(C)C)cc3)ncnc2OCCO)c1", "note": "[RO 46-2005]", "values": [
      {"measurement": "efficacy in acute renal ischemia and subarachnoid hemorrhage", "setting": "endothelin", "value": "effective in models of acute renal ischemia and subarachnoid hemorrhage in rats"}
    ]},
    {"compound": "CC(C)C[C@H](NP(=O)(O)O[C@@H]1O[C@@H](C)[C@H](O)[C@@H](O)[C@H]1O)C(=O)N[C@@H](Cc1c[nH]c2ccccc12)C(=O)O", "note": "[phosphoramidon]", "values": [
      {"measurement": "inhibition of effects of ET-1 (versus big ET-1)", "setting": "[1]; in all cases (studies cited in b8)", "value": "inhibited the effects of big ET-1 and not ET-1"},
      {"measurement": "block of the pressor response of big ET", "setting": "[1]; micromolar concentrations, in vitro and in vivo", "value": "block the pressor response of big ET both in vitro and in vivo"},
      {"measurement": "effects of big ET-1 in the microvasculature", "setting": "[2]", "value": "inhibit the effects of big ET-1 in the microvasculature of anesthetized hamsters"},
      {"measurement": "plasma ET-1 level", "setting": "[3]", "value": "did not have any effect on the plasma ET-1 level"},
      {"measurement": "vasoconstrictor effects evoked by intravenous injections of big ET-1", "setting": "[3]", "value": "inhibit vasoconstrictor effects evoked by intravenous injections of big ET-1"},
      {"measurement": "elevated pulmonary vascular resistance after cardiopulmonary bypass", "setting": "[4]", "value": "reduce elevated pulmonary vascular resistance after cardiopulmonary bypass"},
      {"measurement": "preischemic increase in coronary perfusion pressure induced by big ET-1 and its preischemic effect", "setting": "isolated rat hearts", "value": "abolished the preischemic increase in coronary perfusion pressure induced by big ET-1 as well as its preischemic effect"},
      {"measurement": "inhibition of hemodynamic actions of big ET-1", "setting": "[5]", "value": "phosphoramidon sensitive inhibition of hemodynamic actions of big ET-1 in rat brain"},
      {"measurement": "IC50", "setting": "ECE", "value": "~1000", "unit": "nM"},
      {"measurement": "IC50", "setting": "ECE; listed as Phosphoramidon", "value": 1000, "unit": "nM"},
      {"measurement": "lethality induced by intravenous infusion of big ET-1", "setting": "[6]", "value": "suppress the lethality induced by the intravenous infusion of big ET-1"},
      {"measurement": "decreased basilar artery caliber and elevated systemic arterial pressure by intracisternal big ET-1", "setting": "[7]", "value": "These effects were blocked by phosphoramidon"},
      {"measurement": "infarct size", "setting": "infarct size", "value": "significantly reduce infarct size 24 hour postischemia"},
      {"measurement": "pressor response of big ET-1", "setting": "[8]", "value": "blocked by phosphoramidon in a dose-dependent manner"}
    ]},
    {"compound": "Big ET: 38 (human) or 39 (porcine) amino acid peptide known as big endothelin or proendothelin (CSCSSLMDKECVYFCHLDIIWVNTPEHVVPYGLGSPRS; ends and bridges not checked; cysteine pairing not given here; UniProt P05305 53-90, looked up)", "values": [
      {"measurement": "potency relative to ET-1 in inducing contractile activity", "setting": "vascular strips", "value": 1, "unit": "%"},
      {"measurement": "time to contracture in globally ischemic rat hearts", "setting": "isolated rat hearts", "value": "significantly reduced the time to contracture"},
      {"measurement": "IC50", "setting": "isolated rat hearts", "value": 2, "unit": "nM"},
      {"measurement": "potency relative to ET-1 at raising blood pressure", "setting": "[9]", "value": "equally potent in vivo at raising blood pressure"}
    ]},
    {"compound": "ET-1: a potent vasoconstrictor, is a 21 amino acid bicyclic peptide", "values": [
      {"measurement": "gastric mucosal hemorrhagic change", "setting": "gastric mucosa", "value": "induced gastric mucosal hemorrhagic change in a dose-dependent manner"},
      {"measurement": "tissue type plasminogen activator release and platelet activating formation", "setting": "gastric mucosa", "value": "increased the tissue type plasminogen activator release and platelet activating formation"},
      {"measurement": "time to contracture in globally ischemic rat hearts", "setting": "isolated rat hearts", "value": "significantly reduced the time to contracture"},
      {"measurement": "IC50", "setting": "isolated rat hearts", "value": 0.012, "unit": "nM"}
    ]}
  ]
}
